In ChEMBL document CHEMBL1132253, “Potent inhibition of influenza sialidase by a benzoic acid containing a 2-pyrrolidinone substituent” (J Med Chem, 1999):

Molecular target: Neuraminidase (Influenza B virus (strain B/Lee/1940), UniProt P03474)
Experiment: In vitro inhibitory activity against B/Lee/40 Influenza B Neuraminidase.

Point of comparison: N=C(N)Nc1cc(C(=O)O)ccc1N1C(=O)CCC1(CO)CO, IC50 8 µM. Against it:
- CCC(CC)Nc1cc(C(=O)O)ccc1N1C(=O)CCC1(CO)CO — 13-fold higher, 104 µM
- CCC(CC)Nc1cc(C(=O)O)ccc1N1CCCC1=O — higher, > 5000 µM
- NCC1CCC(=O)N1c1ccc(C(=O)O)cc1N=C(N)N (stereo unspecified) — 62-fold higher, 500 µM
- O=C(O)c1ccc(N2C(=O)CCC2(CO)CO)cc1 — higher, > 8000 µM
- CC(=O)Nc1c(N=C(N)N)cc(C(=O)O)cc1N=C(N)N — 31-fold higher, 250 µM
